Here are results for 2 molecules from publication PMC10879502, “Linking ATP and allosteric sites to achieve superadditive binding with bivalent EGFR kinase inhibitors” (Communications Chemistry, 2024).

In assay [1] the target is T1, EGFR L858R/T790M (LRTM) kinase domain (Homo sapiens, UniProt P00533, L858R/T790M).
T1 construct: The EGFR kinase domain (residues 696–1022) was cloned into pTriEx; 6xHis (N, cleaved yes); GST (N, cleaved yes); made in house; host or cells: SF9 insect cells, baculovirus
Nature of the assay: HTRF KinEASE-TK kinase activity assay. It is filed as biochemical. The settings on record: for Linking coefficient E: LRTM IC50, upper limit; for activity: LRTM, read-out: percent inhibition. (In general: TR-FRET usually uses a lanthanide donor and a delayed reading to cut background.)

In another assay the target is SRPK2 (Homo sapiens, UniProt P78362). Nature of the assay: KINOMEscan. The format is binding. The settings on record: 1 μM.
Sequence of SRPK2 (P78362 whole entry): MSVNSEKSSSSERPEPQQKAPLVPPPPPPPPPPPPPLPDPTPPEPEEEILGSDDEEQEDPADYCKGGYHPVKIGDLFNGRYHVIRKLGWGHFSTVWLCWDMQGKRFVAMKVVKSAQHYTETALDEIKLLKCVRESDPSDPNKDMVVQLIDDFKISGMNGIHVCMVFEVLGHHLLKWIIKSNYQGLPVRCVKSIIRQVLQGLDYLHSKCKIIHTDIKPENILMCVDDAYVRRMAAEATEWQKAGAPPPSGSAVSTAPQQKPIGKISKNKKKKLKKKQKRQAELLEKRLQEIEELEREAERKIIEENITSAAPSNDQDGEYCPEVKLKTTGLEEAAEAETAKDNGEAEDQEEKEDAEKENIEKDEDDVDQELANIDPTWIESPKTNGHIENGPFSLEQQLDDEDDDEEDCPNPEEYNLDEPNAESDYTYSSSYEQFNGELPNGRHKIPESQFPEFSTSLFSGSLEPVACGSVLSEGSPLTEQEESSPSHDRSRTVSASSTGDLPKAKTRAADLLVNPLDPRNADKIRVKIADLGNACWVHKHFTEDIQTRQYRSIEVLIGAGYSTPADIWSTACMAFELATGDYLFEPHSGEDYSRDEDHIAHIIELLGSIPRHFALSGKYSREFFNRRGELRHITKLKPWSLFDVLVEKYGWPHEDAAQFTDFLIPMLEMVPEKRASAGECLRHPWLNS
A further assay deals with OSR1 (Homo sapiens, UniProt O95747). Nature of the assay: KINOMEscan. It is filed as binding. The settings on record: 1 μM.
The next assay deals with WNK1 (Homo sapiens, UniProt Q9H4A3). Nature of the assay: KINOMEscan. The settings on record: 1 μM. It is filed as binding.
The next assay deals with T2, MST2 (Homo sapiens, UniProt Q13188).
T2 construct: purchased Eurofins DiscoverX Corporation
Nature of the assay: KINOMEscan. The settings on record: 1 μM. The format is binding.

The next assay deals with PAK3 (Homo sapiens, UniProt O75914). Nature of the assay: KINOMEscan. The settings on record: 1 μM. The format is binding.
Sequence of PAK3 (O75914 whole entry): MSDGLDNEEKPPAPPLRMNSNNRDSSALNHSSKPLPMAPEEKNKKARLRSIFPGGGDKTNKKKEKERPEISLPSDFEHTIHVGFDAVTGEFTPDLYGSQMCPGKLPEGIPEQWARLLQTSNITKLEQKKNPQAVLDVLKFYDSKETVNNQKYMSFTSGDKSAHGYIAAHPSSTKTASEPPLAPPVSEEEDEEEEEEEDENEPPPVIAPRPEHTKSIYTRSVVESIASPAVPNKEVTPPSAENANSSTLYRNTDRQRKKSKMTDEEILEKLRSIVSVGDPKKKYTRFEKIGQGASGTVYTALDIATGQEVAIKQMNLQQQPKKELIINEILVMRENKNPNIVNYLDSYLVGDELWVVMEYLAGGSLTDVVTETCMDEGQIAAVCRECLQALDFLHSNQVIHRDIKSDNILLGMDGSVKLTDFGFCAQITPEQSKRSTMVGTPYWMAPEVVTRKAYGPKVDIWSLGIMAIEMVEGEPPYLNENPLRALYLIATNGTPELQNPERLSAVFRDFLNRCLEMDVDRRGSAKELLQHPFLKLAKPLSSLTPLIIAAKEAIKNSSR
The target of a further assay is T3, FLT3-autoinhibited (Homo sapiens, UniProt P36888).
T3 construct: purchased Eurofins DiscoverX Corporation
Nature of the assay: KINOMEscan. It is filed as binding. The settings on record: 1 μM.

The next assay has as its target ASK1 (Homo sapiens, UniProt Q99683). Nature of the assay: KINOMEscan. It is filed as binding. The settings on record: 1 μM.
Another assay addresses BLK (Homo sapiens, UniProt P51451). Nature of the assay: KINOMEscan. It is filed as binding. The settings on record: 1 μM.
The next assay deals with T4, MKK7 (Homo sapiens, UniProt O14733).
T4 construct: purchased Eurofins DiscoverX Corporation
Nature of the assay: KINOMEscan. The format is binding. The settings on record: 1 μM.

For the next assay, the target named is T5, CSNK2A1 (Homo sapiens, UniProt P68400).
T5 construct: purchased Eurofins DiscoverX Corporation
Nature of the assay: KINOMEscan. It is filed as binding. The settings on record: 1 μM.

Another assay deals with EGFR(L747-S752del+P753S) (Homo sapiens, UniProt P00533, DEL747-752/P753S). Nature of the assay: KINOMEscan. The settings on record: 1 μM. The format is binding.
In another assay the target is T6, BMX (Homo sapiens, UniProt P51813).
T6 construct: purchased Eurofins DiscoverX Corporation (KINOMEscan)
T6 sequence (P51813 whole entry): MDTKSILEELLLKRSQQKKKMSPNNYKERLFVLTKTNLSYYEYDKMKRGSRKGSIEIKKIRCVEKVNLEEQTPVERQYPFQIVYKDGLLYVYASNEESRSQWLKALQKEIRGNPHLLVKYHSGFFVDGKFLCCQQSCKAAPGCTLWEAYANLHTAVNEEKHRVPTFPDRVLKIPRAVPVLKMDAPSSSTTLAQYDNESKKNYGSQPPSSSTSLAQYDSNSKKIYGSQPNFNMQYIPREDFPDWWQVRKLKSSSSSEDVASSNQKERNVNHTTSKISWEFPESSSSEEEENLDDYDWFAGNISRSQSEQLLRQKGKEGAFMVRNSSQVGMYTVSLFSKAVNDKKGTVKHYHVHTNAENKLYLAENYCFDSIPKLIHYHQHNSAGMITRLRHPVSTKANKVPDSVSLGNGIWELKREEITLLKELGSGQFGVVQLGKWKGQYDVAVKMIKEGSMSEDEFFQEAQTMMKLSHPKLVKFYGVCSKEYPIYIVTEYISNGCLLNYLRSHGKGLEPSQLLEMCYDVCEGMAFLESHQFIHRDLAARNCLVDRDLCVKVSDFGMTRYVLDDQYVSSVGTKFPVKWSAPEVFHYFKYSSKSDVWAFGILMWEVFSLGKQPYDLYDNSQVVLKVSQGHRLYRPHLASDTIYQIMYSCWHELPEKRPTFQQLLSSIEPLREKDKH
Nature of the assay: KINOMEscan. The format is binding. The settings on record: 1 μM.

The next assay addresses CHEK1 (Homo sapiens, UniProt O14757). Nature of the assay: KINOMEscan. It is filed as binding. The settings on record: 1 μM.
For a further assay, the target named is T7, BRSK1 (Homo sapiens, UniProt Q8TDC3).
T7 construct: purchased Eurofins DiscoverX Corporation (KINOMEscan)
Nature of the assay: KINOMEscan. It is filed as binding. The settings on record: 1 μM.

The next assay concerns the target T8, ITK (Homo sapiens, UniProt Q08881).
T8 construct: purchased Eurofins DiscoverX (KINOMEscan)
Nature of the assay: KINOMEscan. It is filed as binding. The settings on record: 1 μM.

The target in a further assay is T9, JNK2 (Homo sapiens, UniProt P45984).
T9 construct: purchased Eurofins DiscoverX (KINOMEscan)
Nature of the assay: KINOMEscan. It is filed as binding. The settings on record: 1 μM.

For another assay, the target named is CDKL1 (Homo sapiens, UniProt Q00532). Nature of the assay: KINOMEscan. The format is binding. The settings on record: 1 μM.
The target of another assay is SRMS (Homo sapiens, UniProt Q9H3Y6). Nature of the assay: KINOMEscan. The format is binding. The settings on record: 1 μM.
The target in the next assay is CDK9 (Homo sapiens, UniProt P50750). Nature of the assay: KINOMEscan. The format is binding. The settings on record: 1 μM.
Sequence of CDK9 (P50750 whole entry): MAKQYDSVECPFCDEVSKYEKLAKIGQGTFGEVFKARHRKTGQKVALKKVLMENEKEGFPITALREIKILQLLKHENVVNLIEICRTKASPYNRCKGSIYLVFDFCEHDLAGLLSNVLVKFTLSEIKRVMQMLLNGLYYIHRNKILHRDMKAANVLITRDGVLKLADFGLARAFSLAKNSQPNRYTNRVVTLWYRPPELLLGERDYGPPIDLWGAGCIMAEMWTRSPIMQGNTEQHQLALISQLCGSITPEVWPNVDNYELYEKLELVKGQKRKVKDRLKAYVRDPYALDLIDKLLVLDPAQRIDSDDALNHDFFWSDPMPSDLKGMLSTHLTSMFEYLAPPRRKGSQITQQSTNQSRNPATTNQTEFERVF
Another assay concerns the target T10, TIE1 (Homo sapiens, UniProt P35590).
T10 construct: purchased Eurofins DiscoverX Corporation
Nature of the assay: KINOMEscan. The settings on record: 1 μM. The format is binding.

In assay [2] the test system is EGFR phosphorylation (pY1068) in HCC827 (exon19 delE746-A750) cells. Nature of the assay: Western blot. The format is cell-based, human. The settings on record: HCC827, 6 h. As to the method: (§1) H1975, H3255, H3255GR and HCC827 lung adenocarcinoma cells (obtained from Dr. Pasi Jänne in Dana-Farber Cancer Institute, 2022) were cultured in RPMI 1640 media (Corning, 1004-CV) supplemented with 10% FBS (Tissue Culture Biologicals, 35-010-CV) and 1% penicillin-streptomycin (P/S, Corning, 30-002-CI). All cell lines were tested negative for Mycoplasma using Myco-Sniff-Rapid™ Mycoplasma Luciferase Detection Kit Plus PCR Primer Set (MP biomedicals, 0930504-CF) and were passaged and/or used for no longer than 4 weeks for all experiments H1975 and HCC-827 cells were seeded in 6-well plates with 400,000 cells per well and incubated overnight. H3255 and H3255GR cells were seeded in 12-well plates with 200,000 cells per well and were grown to confluency after 48 h. Culture medium was removed, cells washed with PBS, and lysed with lysis buffer containing 5 M NaCl, 1 M TRIS pH 8.0, 10% SDS, 10% Triton X-100 and a tablet of protease and phosphatase inhibitor. Protein lysate concentration was analyzed using Pierce BCA kit (ThermoFisher, 23225). Protein samples (10 µg) were resolved on hand-cast Criterion Tris-HCl protein gels. Primary antibodies used; phospho-EGFR (Tyr1068; #2234, 1:1,000), EGFR (#4267; 1:1,000), phospho-AKT (Ser473; #4060, 1:1,000), AKT (#9272, 1:1,000), phospho-ERK1/2 (Thr202/Tyr204; #4370, 1:1,000), and ERK1/2 (#4695, 1:1,000) antibodies; were purchased from Cell Signaling Technology. Secondary Goat anti-rabbit IgG starbright blue 700 (Biorad, 64484700) and Anti-tubulin hFAB Rhodamine Tubulin (Bio-Rad, 64512248). Western blots were visualized with the ChemiDoc MP imager (Bio-Rad) utilizing the Image Lab Touch Software (version 2.4.0.03). All Western blot images are representatives of at least 3 independent replicate experiments.
(Immunoblotting shows a protein as a band on a membrane.)

The test system of assay [3] is EGFR phosphorylation (pY1068) in H3255 (LR) cells. Nature of the assay: Western blot. It is filed as cell-based, human. The settings on record: H3255, 6 h. The method, then: as §1
In assay [4] the test system is EGFR phosphorylation (pY1068) in H3255GR (LRTM) cells. Nature of the assay: Western blot. The format is cell-based, human. The settings on record: 6 h. The method, then:
as §1

The target in another assay is T11, TAOK3 (Homo sapiens, UniProt Q9H2K8).
T11 construct: purchased Eurofins DiscoverX Corporation
Nature of the assay: KINOMEscan. The settings on record: 1 μM. It is filed as binding.

Several values for one entry are separate records, joined by “and”; a condition that tells them apart may be missing. Equal entries are not always repeated. Where two headings read alike, the source gives them in different places.

Sequence of BLK (P51451 whole entry): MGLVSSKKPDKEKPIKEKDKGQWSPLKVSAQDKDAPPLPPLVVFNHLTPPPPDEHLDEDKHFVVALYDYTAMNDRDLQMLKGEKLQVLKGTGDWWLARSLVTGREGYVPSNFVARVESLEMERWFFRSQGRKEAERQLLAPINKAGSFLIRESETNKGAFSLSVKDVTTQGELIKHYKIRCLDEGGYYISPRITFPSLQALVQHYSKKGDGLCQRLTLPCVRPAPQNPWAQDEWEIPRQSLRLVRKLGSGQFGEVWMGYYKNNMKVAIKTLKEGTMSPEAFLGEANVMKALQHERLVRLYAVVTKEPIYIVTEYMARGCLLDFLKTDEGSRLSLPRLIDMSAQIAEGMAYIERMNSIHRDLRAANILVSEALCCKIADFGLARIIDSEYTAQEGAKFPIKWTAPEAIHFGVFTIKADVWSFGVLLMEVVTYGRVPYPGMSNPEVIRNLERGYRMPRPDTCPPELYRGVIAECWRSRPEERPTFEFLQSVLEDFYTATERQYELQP
Sequence of CHEK1 (O14757 whole entry): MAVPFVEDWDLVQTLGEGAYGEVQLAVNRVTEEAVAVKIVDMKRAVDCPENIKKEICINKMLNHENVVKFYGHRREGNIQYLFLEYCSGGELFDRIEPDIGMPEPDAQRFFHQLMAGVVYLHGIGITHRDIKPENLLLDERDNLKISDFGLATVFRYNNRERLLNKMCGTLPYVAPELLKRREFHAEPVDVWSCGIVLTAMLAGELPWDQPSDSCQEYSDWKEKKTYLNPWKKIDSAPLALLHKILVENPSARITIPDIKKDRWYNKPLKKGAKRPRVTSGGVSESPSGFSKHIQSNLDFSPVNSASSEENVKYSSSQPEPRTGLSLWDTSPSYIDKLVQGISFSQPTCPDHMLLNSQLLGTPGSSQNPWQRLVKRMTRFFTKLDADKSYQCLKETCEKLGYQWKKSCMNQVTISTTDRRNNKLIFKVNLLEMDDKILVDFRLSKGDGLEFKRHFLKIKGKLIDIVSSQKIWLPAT
T8 sequence (Q08881 whole entry): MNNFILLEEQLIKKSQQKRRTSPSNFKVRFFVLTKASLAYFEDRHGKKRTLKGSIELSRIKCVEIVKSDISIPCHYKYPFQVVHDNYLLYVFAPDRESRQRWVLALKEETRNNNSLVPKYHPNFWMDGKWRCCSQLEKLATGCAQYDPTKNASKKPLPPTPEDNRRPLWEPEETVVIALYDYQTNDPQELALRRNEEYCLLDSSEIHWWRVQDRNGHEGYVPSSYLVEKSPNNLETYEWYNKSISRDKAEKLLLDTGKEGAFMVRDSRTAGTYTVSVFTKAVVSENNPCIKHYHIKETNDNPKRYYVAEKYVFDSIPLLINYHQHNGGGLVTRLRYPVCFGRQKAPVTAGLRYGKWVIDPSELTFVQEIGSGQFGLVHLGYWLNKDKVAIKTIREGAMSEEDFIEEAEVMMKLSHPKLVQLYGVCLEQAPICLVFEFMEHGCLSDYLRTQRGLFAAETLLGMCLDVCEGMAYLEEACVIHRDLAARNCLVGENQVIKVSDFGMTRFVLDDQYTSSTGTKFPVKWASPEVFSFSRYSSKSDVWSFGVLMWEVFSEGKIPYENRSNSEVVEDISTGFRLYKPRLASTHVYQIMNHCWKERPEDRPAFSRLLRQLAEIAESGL
T10 sequence (P35590 22-1138): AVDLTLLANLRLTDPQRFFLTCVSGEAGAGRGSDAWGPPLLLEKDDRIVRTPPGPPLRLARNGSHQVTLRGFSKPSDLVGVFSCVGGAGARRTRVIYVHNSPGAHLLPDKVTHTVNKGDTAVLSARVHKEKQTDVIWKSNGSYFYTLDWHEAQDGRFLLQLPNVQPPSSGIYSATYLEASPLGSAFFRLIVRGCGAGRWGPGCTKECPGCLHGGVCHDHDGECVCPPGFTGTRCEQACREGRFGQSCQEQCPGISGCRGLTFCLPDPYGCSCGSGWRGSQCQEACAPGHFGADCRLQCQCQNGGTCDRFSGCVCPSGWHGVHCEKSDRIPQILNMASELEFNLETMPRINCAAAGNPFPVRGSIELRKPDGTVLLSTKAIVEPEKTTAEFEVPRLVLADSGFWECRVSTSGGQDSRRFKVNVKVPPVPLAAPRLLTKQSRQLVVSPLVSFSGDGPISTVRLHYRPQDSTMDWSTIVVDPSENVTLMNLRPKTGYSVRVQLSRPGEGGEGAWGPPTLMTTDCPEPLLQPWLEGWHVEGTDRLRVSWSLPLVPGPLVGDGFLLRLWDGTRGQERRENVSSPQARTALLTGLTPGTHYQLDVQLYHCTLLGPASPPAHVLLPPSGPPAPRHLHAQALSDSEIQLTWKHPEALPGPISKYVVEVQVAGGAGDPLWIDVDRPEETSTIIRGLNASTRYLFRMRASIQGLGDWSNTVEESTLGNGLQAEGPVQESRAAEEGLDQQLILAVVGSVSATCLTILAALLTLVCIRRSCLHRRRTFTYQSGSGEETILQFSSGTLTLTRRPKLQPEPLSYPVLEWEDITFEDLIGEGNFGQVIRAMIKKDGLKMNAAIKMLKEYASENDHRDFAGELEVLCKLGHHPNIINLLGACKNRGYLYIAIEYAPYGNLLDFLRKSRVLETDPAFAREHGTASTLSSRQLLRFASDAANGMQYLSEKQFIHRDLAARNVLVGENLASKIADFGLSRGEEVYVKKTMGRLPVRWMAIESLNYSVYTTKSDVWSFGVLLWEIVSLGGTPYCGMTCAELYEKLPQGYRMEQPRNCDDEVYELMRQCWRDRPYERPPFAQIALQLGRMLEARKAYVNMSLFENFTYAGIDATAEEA

In general, IC50 refers to the concentration at which inhibition is half-maximal. Regarding `CSc1nc(-c2cccc(NC(=O)c3cccc4c3NC(=O)c3ccccc3N4)c2)c(-c2ccnc(NC(C)=O)c2)[nH]1` [Compound 2], the “Linking coefficient E” value in assay [1] (ATP fragment 5, allosteric fragment 10) was less than 1.0 M⁻¹; in assay [1] (ATP fragment 6, allosteric fragment 10) it was < 0. 59 M-1. In addition, the activity in assay [1] ([Inhibitor] 1.3e-5 nM) is 83.4% and 90.2% and 86.8%; in assay [1] ([Inhibitor] 3.18e-5 nM), 73.8% and 73.1% and 84.5%; in assay [1] ([Inhibitor] 7.78e-5 nM), 40.1% and 41.4% and 42.9%; in assay [1] ([Inhibitor] 0.000190441 nM, 190.4 fM), 19.1% and 19.2%; in assay [1] ([Inhibitor] 0.000465979 nM, 466 fM), 8.04% and 10%; in assay [1] ([Inhibitor] 0.00114018 nM, 1.14 pM) it was 5.9% and 5.75%. For the same molecule, the activity in assay [1] ([Inhibitor] 0.00278983 nM, 2.79 pM) was 3.92% and 5.27%; in assay [1] ([Inhibitor] 0.00682626 nM, 6.826 pM), 3.83% and 4.05%; in assay [1] ([Inhibitor] 0.0167028 nM, 16.7 pM), 2.18% and 2.36%. The concentration for half-maximal inhibition (IC50) in [1] (Table S1, read-out: IC50, LRTM) is 51 to 64 pM and 51 to 59 pM; in assay [1] (enzyme 0.02 nM, ATP 100 µM, read-out: Biochemical EGFR IC50, LRTM), 59 ± 5 pM. Besides, the “linking coefficients” value in assay [1] (limits estimated from LRTM IC50 values) is 0.5 to 1.0 M⁻¹.
As for `C=CC(=O)Nc1ccc(OC)c(Nc2cc(-c3[nH]c(CC)nc3-c3cccc(NC(=O)c4cccc5c4NC(=O)c4ccccc4N5)c3)ccn2)c1` [Compound 4], the POC on SRPK2 is 100% of control; on OSR1, 89% of control; on WNK1, 100% of control; at MST2, 14% of control; at PAK3, 70% of control; at FLT3-autoinhibited, 100% of control. Besides, the POC on ASK1 is on record as 100% of control; on BLK, 1.7% of control; on MKK7, 31% of control; on CSNK2A1, 100% of control; at EGFR(L747-S752del+P753S) it was 16% of control; at BMX, 66% of control. Besides, the POC on CHEK1 is recorded as 100% of control; on BRSK1 it was 100% of control; at ITK it was 87% of control; on JNK2, 78% of control; at CDKL1, 100% of control; on SRMS it was 61% of control. Moreover, the POC is given as 100% of control at CDK9, 100% of control at TIE1 and 95% of control at TAOK3. The “suppression of EGFR pY1068 phosphorylation” value in [2], in [3] and in assay [4] was “analogous suppression of EGFR pY1068 phosphorylation” each time.
